Measured values taken from the supplement of paper PMC10307832.

What was measured:
Experiment in all cases: relative viability (nuclei count vs DMSO), 5 days (fraction); higher = more cells survive
[1] = compound: O=C(NCCCNc1nc(Nc2cccc(NC(=O)N3CCCC3)c2)ncc1I)c1cccs1 [BX 795]
Method in brief: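 Viability here means nuclei in treated wells divided by nuclei in vehicle wells, reported as the median across plates. Only plates with control CV below 25% and at least one doubling passed. Lung cancer cell lines in 1536-well plates were exposed to five √10-spaced library-drug doses for 5 days and counted from 4× Hoechst images in MetaXpress.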

[2] = compound: O=C(NCCCNc1nc(Nc2cccc(NC(=O)N3CCCC3)c2)ncc1I)c1cccs1 [BX 795] + COc1cccc2cc(-c3nc([C@H]4CC[C@H](C(=O)O)CC4)n4ncnc(N)c34)[nH]c12 [OSI-027] (partner 0.5 µM)
Method in brief: (§1)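 Five library-drug doses in √10 steps were combined with a fixed anchor-drug dose, or a single drug was given alone, by pin tool to lung cancer cell lines in 1536-well plates the day after seeding. Nuclei were stained and counted after 5 days. Relative viability is the nuclei count in treated wells over that in vehicle wells, taken as the median of duplicate plates.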

[3] = compound: O=C(NCCCNc1nc(Nc2cccc(NC(=O)N3CCCC3)c2)ncc1I)c1cccs1 [BX 795] + C[C@]1(O)C[C@@H](c2nc(-c3ccc4ccc(-c5ccccc5)nc4c3)c3c(N)nccn32)C1 [Linsitinib] (partner 1 µM)
Method in brief: as §1

[4] = compound: O=C(NCCCNc1nc(Nc2cccc(NC(=O)N3CCCC3)c2)ncc1I)c1cccs1 [BX 795] + Cc1cc(Nc2cc(N3CCN(C)CC3)nc(Sc3ccc(NC(=O)C4CC4)cc3)n2)n[nH]1 [Tozasertib] (partner 0.1 µM)
Method in brief: as §1

[5] = compound: O=C(NCCCNc1nc(Nc2cccc(NC(=O)N3CCCC3)c2)ncc1I)c1cccs1 [BX 795] + NC(=O)Nc1cc(-c2cccc(F)c2)sc1C(=O)N[C@H]1CCCNC1 [AZD7762] (partner 0.2 µM)
Method in brief: as §1

Row | Cell Line | relative viability ([1]; 0.04 µM) | relative viability ([1]; 0.1265 µM) | relative viability ([1]; 0.4 µM) | relative viability ([1]; 1.265 µM) | relative viability ([2]; first compound 0.04 µM) | relative viability ([2]; first compound 0.1265 µM) | relative viability ([2]; first compound 0.4 µM) | relative viability ([2]; first compound 1.265 µM) | relative viability ([3]; first compound 0.04 µM) | relative viability ([3]; first compound 0.1265 µM) | relative viability ([3]; first compound 0.4 µM) | relative viability ([3]; first compound 1.265 µM) | relative viability ([4]; first compound 0.04 µM) | relative viability ([4]; first compound 0.1265 µM) | relative viability ([4]; first compound 0.4 µM) | relative viability ([4]; first compound 1.265 µM) | relative viability ([5]; first compound 0.04 µM) | relative viability ([5]; first compound 0.1265 µM) | relative viability ([5]; first compound 0.4 µM) | relative viability ([5]; first compound 1.265 µM)
1 | NCI-H2126 | 1.01 | 1.02 | 1.1 | 0.983 | 0.837 | 0.677 | 0.818 | 0.699 | 0.714 | 0.656 | 0.757 | 0.701 | 0.85 | 0.883 | 0.831 | 0.758 | 1.02 | 1.01 | 1.01 | 0.983
2 | NCI-H2347 | 1.14 | 1.01 | 1.28 | 0.935 | 0.503 | 0.541 | 0.616 | 0.352 | 1.09 | 0.962 | 1.17 | 0.942 | 0.817 | 0.64 | 0.603 | 0.441 | 0.806 | 0.838 | 0.677 | 0.578
3 | NCI-H2405 | 1.06 | 0.963 | 0.988 | 0.89 | 0.75 | 0.65 | 0.66 | 0.559 | 0.871 | 0.828 | 0.678 | 0.694 | 0.799 | 0.715 | 0.746 | 0.581 | 0.714 | 0.678 | 0.664 | 0.573
4 | NCI-H3122 | 0.981 | 1.01 | 1.04 | 1.06 | 0.948 | 1.06 | 0.947 | 0.733 | 0.989 | 1.02 | 1.08 | 1.1 | 0.387 | 0.415 | 0.323 | 0.356 | 1.06 | 1.07 | 0.937 | 1.03
5 | PC-3 [JPC-3] | 1.07 | 0.979 | 1.04 | 1 | 0.813 | 0.81 | 0.829 | 0.72 | 1.02 | 1.02 | 0.979 | 0.976 | 0.931 | 0.851 | 0.881 | 0.872 | 0.809 |  | 0.685 | 0.802
6 | PC-14 | 0.948 | 0.997 | 0.944 | 0.719 | 0.738 | 0.968 | 0.572 | 0.475 | 0.923 | 0.917 | 0.879 | 0.75 | 0.619 | 0.595 | 0.47 | 0.427 | 0.369 | 0.383 | 0.335 | 0.282
7 | RERF-LC-KJ | 1.06 | 0.949 | 1.02 | 0.908 | 0.62 | 0.636 | 0.591 | 0.416 | 0.881 | 0.891 | 0.94 | 0.874 | 0.599 | 0.501 | 0.445 | 0.217 | 1.16 | 1.05 | 1.11 | 0.86
